From patent publication US10947196B2, “Beta adrenergic agonist and methods of using the same” (CURASEN THERAPEUTICS, INC., priority 2019, dated 2021)
Read-outs that look alike come from different tables or passages of the source.

Columns and labels:
[1] = Microsomal stability (rat); type: in vitro ADME; details: liver microsomes 0.5 mg/mL; method gives CLint in μL/min/mg protein
Description: The master solution was prepared as follows.
With NADPH: 10 μL of 20 mg/mL liver microsomes and 40 μL of 10 mM NADPH were added to the incubations. The final concentrations of microsomes and NADPH were 0.5 mg/mL and 1 mM, respectively.
Without NADPH: 10 μL of 20 mg/mL liver microsomes and 40 μL of ultra-pure H2O were added to the incubations. The final concentration of microsomes was 0.5 mg/mL.
The reaction was started with the addition of 4 μL of 3, 10, 30 and 100 μM test compound solution or control compound solution at the final concentration of 0.03, 0.1, 0.3 and 1 μM and carried out at 37° C.
Aliquots of 50 μL were taken from the reaction solution at 0, 15, 30, 45 and 60 min. The reaction was stopped by the addition of 4 volumes of cold acetonitrile with IS (100 nM alprazolam, 200 nM labetalol, 200 nM caffeine and 2 μM ketoprofen). Samples were centrifuged at 3, 220 g for 40 minutes. Aliquot of 100 μL of the supernatant was mixed with 100 μL of ultra-pure H2O and then used for LC-MS/MS analysis.
Peak areas were determined from extracted ion chromatograms. The slope value, k, was determined by linear regression of the natural logarithm of the remaining percentage of the parent drug vs. incubation time curve.
The in vitro half-life (in vitro t1/2) was determined from the slope value: in vitro t1/2=−(0.693/k) […]

[2] = molecular target: β2 adrenergic receptors in human astrocytoma cells (1321N1) (Homo sapiens (Human), UniProt P07550); test: cAMP HTRF assay in human astrocytoma cells (1321N1); type: cell-based; details: Endogenous receptor, 1321N1 cells
Sequence of β2 adrenergic receptors in human astrocytoma cells (1321N1) (P07550 whole entry): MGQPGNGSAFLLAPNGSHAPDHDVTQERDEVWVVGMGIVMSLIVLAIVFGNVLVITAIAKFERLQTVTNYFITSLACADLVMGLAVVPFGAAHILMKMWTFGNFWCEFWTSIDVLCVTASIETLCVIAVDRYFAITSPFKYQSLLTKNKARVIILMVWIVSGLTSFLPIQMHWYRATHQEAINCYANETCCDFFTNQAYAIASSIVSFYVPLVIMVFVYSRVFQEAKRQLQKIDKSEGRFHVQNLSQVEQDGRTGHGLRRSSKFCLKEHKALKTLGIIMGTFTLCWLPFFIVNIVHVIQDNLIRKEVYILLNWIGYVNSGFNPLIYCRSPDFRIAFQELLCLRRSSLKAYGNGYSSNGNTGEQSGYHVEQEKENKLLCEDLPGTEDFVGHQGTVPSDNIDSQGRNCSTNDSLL
Procedure, shortened: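 Intracellular cAMP quantified by Eu-donor/d2-acceptor HTRF after 30 min compound exposure at 37° C in stimulation buffer with IBMX. Concentrations ran 10 μM top, 5-fold steps, 10 points. Cell lines: 1321N1 astrocytoma and CHO expressing β1 or β2; EC50 via four-parameter fit, relative efficacy against isoproterenol.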

| Compound | Microsomal stability, Rat [1] [µL/min/mg protein] | EC50 ([2]; read-out: Average pEC50 [Receptor subtype: Endogenous, Cell type: 1321N1] (converted)) [nM] | Average pEC50 [Receptor subtype: Endogenous; Cell type: 1321N1] [2] | EC50 ([2]; read-out: Average EC50 [Receptor subtype: Endogenous, Cell type: 1321N1]) [nM] |
| --- | --- | --- | --- | --- |
| CC(C)(C)NC[C@H](O)c1cccc(C(F)(F)F)n1 [Compound 03-3] | 3.48 |  |  |  |
| Cc1ncccc1[C@@H](O)CNC(C)(C)C [Compound 03-115] |  | 100 to 1000 |  |  |
| CC(C)(C)NC[C@H](O)c1cccc(C#N)n1 [Compound 03-5, (S)-6-(2-(tert-butylamino)-1-hydroxyethyl)picolinonitrile] | 2.53 |  | C-B | 10 to 100 |
